Columns and labels:
[1] = target: T1, Cdr1p (Cdr1p-GFP) (Candida albicans, UniProt Q5ANA3, DEL903-903); assay: cell-based
T1 construct: gene CDR1
Description: (§1) R6G binding, from drug transport kinetics of overexpressing yeast (method not detailed) on Cdr1p (Cdr1p-GFP)

[2] = target: T2, Cdr1p (Cdr1p-GFP) (Candida albicans, UniProt Q5ANA3); assay: R6G binding, from drug transport kinetics of overexpressing yeast (method not detailed); format: cell-based
T2 construct: gene CDR1; plasmid pPSCDR1-GFP integrated at PDR5 locus of S. cerevisiae AD1-8u-; plasma membrane fractions or cells

[3] = target: T3, Cdr1p (Cdr1p-GFP) (Candida albicans, UniProt Q5ANA3, DEL905-905); assay: cell-based
T3 construct: gene CDR1
Description: as §1

[4] = test system: Nc1ncnc2c1ncn2[C@@H]1O[C@H](COP(=O)(O)OP(=O)(O)OP(=O)(O)O)[C@@H](O)[C@H]1O; assay: cells, lysate or membranes; conditions: 30 °C, Mg-ATP, GFP-tagged wild type
Description: oligomycin-sensitive ATPase, Pi release, plasma membrane fraction; Lineweaver-Burk on Cdr1p (Cdr1p-GFP)

Molecule | Kd [1] | Kd [2] | Kd [3] | Km [4] | Vmax [4]
CCN=c1cc2oc3cc(NCC)c(C)cc3c(-c3ccccc3C(=O)OCC)c-2cc1C [Rhodamine 6G] | 11.9 ± 1.9 µM | 9 ± 1.8 µM | 25 ± 2 µM | – | –
Cdr1p (Cdr1p-GFP) (Candida albicans SC5314) | – | – | – | 2.1 ± 0.5 mM | 0.105 µmol/min/mg

— article PMC4890005, “Newly identified motifs in Candida albicans Cdr1 protein nucleotide binding domains are pleiotropic drug resistance subfamily-specific and functionally asymmetric” (Scientific Reports, 2016)
